ChEMBL document CHEMBL3745704, “Novel nonsecosteroidal VDR ligands with phenyl-pyrrolyl pentane skeleton for cancer therapy” (Eur J Med Chem, 2016)

Assays:
[1] = Antipoliferative activity against human PC3 cells after 48 hrs by MTT assay; type: functional, cell-based; settings: PC-3, 48 h
MCF7 = assay: Antipoliferative activity against human MCF7 cells after 48 hrs by MTT assay; type: functional, cell-based; settings: MCF7, 48 h
[2] = Antipoliferative activity against human Caco2 cells after 48 hrs by MTT assay; type: functional, cell-based; settings: Caco-2, 48 h
HepG2 = assay: Antipoliferative activity against human HepG2 cells after 48 hrs by MTT assay; type: functional, cell-based; settings: HepG2, 48 h
[3] = Cytotoxicity against human L02 cells after 48 hrs by MTT assay; type: cell-based; settings: L02, 48 h
Rattus norvegicus [4] = assay: Toxicity in rat assessed as hypercalcemic activity at 30 mg/kg/day administered for 7 days; type: organism-based; settings: in vivo, 168 h
Vitamin D3 receptor = target: T1, Vitamin D3 receptor (Homo sapiens, UniProt P11473); assay: Binding affinity to vitamin D3 receptor (unknown origin) after 4 hrs using fluormone VDR red by polar screen VDR competitor assay
T1 sequence (P11473 whole entry): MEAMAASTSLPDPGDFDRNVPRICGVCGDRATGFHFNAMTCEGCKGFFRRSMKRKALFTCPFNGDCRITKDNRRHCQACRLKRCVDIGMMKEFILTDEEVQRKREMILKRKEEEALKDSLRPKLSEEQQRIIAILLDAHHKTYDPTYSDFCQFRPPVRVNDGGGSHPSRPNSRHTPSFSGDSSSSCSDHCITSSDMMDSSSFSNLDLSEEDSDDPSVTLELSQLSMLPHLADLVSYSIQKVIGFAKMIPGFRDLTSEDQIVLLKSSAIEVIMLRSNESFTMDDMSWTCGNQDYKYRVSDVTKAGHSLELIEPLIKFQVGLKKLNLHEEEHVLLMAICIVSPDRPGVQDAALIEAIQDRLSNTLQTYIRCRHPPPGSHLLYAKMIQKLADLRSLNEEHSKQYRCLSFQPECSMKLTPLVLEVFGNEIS

Rattus norvegicus [5] = assay: Toxicity in rat assessed as hypercalcemic activity at 10 mg/kg/day administered for 7 days; type: organism-based; settings: in vivo, 168 h
Rattus norvegicus [6] = assay: Toxicity in rat assessed as hypercalcemic activity at 0.5 mg/kg/day administered for 7 days; type: organism-based; settings: in vivo, 168 h
Rattus norvegicus [7] = assay: Toxicity in rat assessed as serum calcium level at 0.5 ug/kg/day administered for 7 days (reference value: 7.25 mg/dl); type: organism-based; settings: in vivo, 0.0005 mg/kg, 168 h

IC50 (MCF7)	IC50 (HepG2)	IC50 (Vitamin D3 receptor)	SMILES	IC50 [1]	IC50 [2]	IC50 [3]	Activity (Rattus norvegicus [4])	Activity (Rattus norvegicus [5])	Activity (Rattus norvegicus [6])	Activity (Rattus norvegicus [7])
7800 nM	> 50000 nM		CCC(CC)(c1ccc(OCC(=O)C(C)(C)C)c(C)c1)c1ccc(OCC(=O)C(C)(C)C)c(C)c1	> 50000 nM	16900 nM	5100 nM	Non-toxic			
2800 nM	47600 nM		CCn1c(C(=O)N[C@@H](C)CO)ccc1C(CC)(CC)c1ccc(OCC(O)C(C)(C)C)c(C)c1 (some centres not stated)	17500 nM	> 50000 nM	17300 nM	Non-toxic			
> 50000 nM	> 50000 nM		CCn1c(C(=O)N(C)CCC#N)ccc1C(CC)(CC)c1ccc(OCC(O)C(C)(C)C)c(C)c1 (configuration not stated)	1700 nM	> 50000 nM	14900 nM				
2070 nM	1290 nM	1190 nM	CCn1c(C(=O)NCCCN2CCOCC2)ccc1C(CC)(CC)c1ccc(OCC(O)C(C)(C)C)c(C)c1 (configuration not stated)	7.9 nM	5900 nM	810 nM	Non-toxic	Non-toxic	Non-toxic	
690 nM	620 nM		CCN(CC)CCNC(=O)c1ccc(C(CC)(CC)c2ccc(OCC(=O)C(C)(C)C)c(C)c2)n1CC	30 nM	1600 nM	2500 nM				
28600 nM	25200 nM		CCn1c(C(=O)N(C)CC(=O)O)ccc1C(CC)(CC)c1ccc(OCC(=O)C(C)(C)C)c(C)c1	18400 nM	35900 nM	8700 nM				
480 nM	42000 nM	> 10000 nM	CCn1c(C(=O)N(CCC#N)CCC#N)ccc1C(CC)(CC)c1ccc(OCC(O)C(C)(C)C)c(C)c1 (configuration not stated)	7800 nM	7100 nM	1700 nM				
490 nM	360 nM	197 nM	CCn1c(C(=O)NCCCN(C)C)ccc1C(CC)(CC)c1ccc(OCC(O)C(C)(C)C)c(C)c1 (configuration not stated)	3100 nM	1900 nM	470 nM				
660 nM	870 nM		CCn1c(C(=O)NCCN(C)C)ccc1C(CC)(CC)c1ccc(OCC(O)C(C)(C)C)c(C)c1 (configuration not stated)	1630 nM	1300 nM	2600 nM				
> 50000 nM	> 50000 nM		C=CCN(C)C(=O)c1ccc(C(CC)(CC)c2ccc(OCC(O)C(C)(C)C)c(C)c2)n1CC (configuration not stated)	25900 nM	> 50000 nM	6300 nM				
> 50000 nM	> 50000 nM		CCn1c(C(=O)Oc2ccc(CCO)cc2)ccc1C(CC)(CC)c1ccc(OCC(O)C(C)(C)C)c(C)c1 (configuration not stated)	6300 nM	> 50000 nM	22700 nM				
25400 nM	17000 nM		CCn1c(C(=O)N(C)CC(=O)O)ccc1C(CC)(CC)c1ccc(OCC(O)C(C)(C)C)c(C)c1 (configuration not stated)	23900 nM	31900 nM	32600 nM				
> 50000 nM	> 50000 nM		CCn1c(C(=O)OCc2ccc(F)cc2)ccc1C(CC)(CC)c1ccc(OCC(O)C(C)(C)C)c(C)c1 (configuration not stated)	> 50000 nM	> 50000 nM	14900 nM				
5.9 nM	176 nM	194 nM	CCn1c(C(=O)NCCN)ccc1C(CC)(CC)c1ccc(OCC(O)C(C)(C)C)c(C)c1 (configuration not stated)	940 nM	1000 nM	2400 nM	Non-toxic	Non-toxic	Non-toxic	
> 50000 nM	> 50000 nM	> 10000 nM	C#CCNC(=O)c1ccc(C(CC)(CC)c2ccc(OCC(O)C(C)(C)C)c(C)c2)n1CC (configuration not stated)	16200 nM	39100 nM	4400 nM				
> 50000 nM	> 50000 nM		C#CC(C)OC(=O)c1ccc(C(CC)(CC)c2ccc(OCC(O)C(C)(C)C)c(C)c2)n1CC (configuration not stated)	38200 nM	> 50000 nM	23700 nM				
5200 nM	1600 nM	3520 nM	CCn1c(C(=O)NCCCN2CCOCC2)ccc1C(CC)(CC)c1ccc(OCC(=O)C(C)(C)C)c(C)c1	11 nM	3600 nM	310 nM				
75 nM	180 nM	1010 nM	CCn1c(C(=O)NCCN)ccc1C(CC)(CC)c1ccc(OCC(=O)C(C)(C)C)c(C)c1	480 nM	1900 nM	2500 nM				
530 nM	180 nM	863 nM	CCN(CC)CCCNC(=O)c1ccc(C(CC)(CC)c2ccc(OCC(=O)C(C)(C)C)c(C)c2)n1CC	1800 nM	1000 nM	2300 nM				
520 nM	2300 nM		CCn1c(C(=O)NCCN(C)C)ccc1C(CC)(CC)c1ccc(OCC(=O)C(C)(C)C)c(C)c1	2300 nM	1600 nM	2500 nM				
160 nM	247 nM	564 nM	CC[C@@H](C)[C@H](NC(=O)c1ccc(C(CC)(CC)c2ccc(OCC(=O)C(C)(C)C)c(C)c2)n1CC)C(=O)O	1600 nM	4500 nM	1500 nM				
		9250 nM	CCOc1ccc(NC(=O)c2ccc(C(CC)(CC)c3ccc(OCC(O)C(C)(C)C)c(C)c3)n2CC)cc1 (configuration not stated)							
690 nM	490 nM		CCN(CC)CCNC(=O)c1ccc(C(CC)(CC)c2ccc(OCC(O)C(C)(C)C)c(C)c2)n1CC (configuration not stated)	220 nM	2310 nM	2500 nM				
> 50000 nM	23200 nM	5230 nM	CCn1c(C(=O)NCC(OC)OC)ccc1C(CC)(CC)c1ccc(OCC(O)C(C)(C)C)c(C)c1 (configuration not stated)	14600 nM	> 50000 nM	22200 nM				
340 nM	960 nM		CCn1c(C(=O)NCCCN(C)C)ccc1C(CC)(CC)c1ccc(OCC(=O)C(C)(C)C)c(C)c1	1600 nM	1400 nM	670 nM				
9200 nM	> 50000 nM		CCOC(=O)CN(C)C(=O)c1ccc(C(CC)(CC)c2ccc(OCC(O)C(C)(C)C)c(C)c2)n1CC (configuration not stated)	25500 nM	12200 nM	10100 nM				
2000 nM	127 nM	389 nM	CC[C@@H](C)[C@H](NC(=O)c1ccc(C(CC)(CC)c2ccc(OCC(O)C(C)(C)C)c(C)c2)n1CC)C(=O)O (some centres not stated)	1900 nM	3400 nM	1400 nM				
190 nM	1100 nM	71.1 nM	CCN(CC)CCCNC(=O)c1ccc(C(CC)(CC)c2ccc(OCC(O)C(C)(C)C)c(C)c2)n1CC (configuration not stated)	2500 nM	1800 nM	2500 nM				
			C=C1/C(=C\C=C2/CCC[C@]3(C)[C@@H]([C@H](C)CCCC(C)(C)O)CC[C@@H]23)C[C@@H](O)C[C@@H]1O [CALCITRIOL]							13.11 mg/dL
